Data as given in patent EP0199888B1, “Control of heme and iron concentrations in body tissues” (THE ROCKEFELLER UNIVERSITY, priority 1985, dated 1986).

Tests used:
[1] = system: bile duct cannulated rats; experiment: Excretion of heme and bilirubin in bile after infusion of exogenous heme
[2] = system: bile duct cannulated rats; experiment: Output of biliary iron by graphite furnace atomic absorption analysis; format: in vivo; details: after administration of Sn-PP; representative study, typical of all animals studied
[3] = system: bile duct cannulated rats; experiment: Excretion of heme and bilirubin in bile after infusion of heat-damaged erythrocytes; format: in vivo

Row | Compound | biliary heme excretion ([1]; 5 rats, heme 6.1 µmol/kg b.w. i.v. bolus plus Sn-PP 10 µmol/kg b.w. i.v. at the same time) | amounts of heme excreted in bile relative to control animals treated with heme alone ([1]; heme 6.1 µmol/kg b.w. plus Sn-PP 10 µmol/kg b.w. i.v.) | increase in biliary bilirubin resulting from the infusion of heme ([1]; heme 6.1 µmol/kg b.w. plus Sn-PP 10 µmol/kg b.w. i.v., all animals) | amounts of heme excreted in bile ([1]; heme 6.1 µmol/kg b.w. plus Sn-PP 10 µmol/kg b.w. i.v., mean) | output of biliary iron [2] | biliary heme excretion ([3]; 8 rats, heat-damaged erythrocytes i.v. bolus (equivalent to 8.5 umol heme/kg b.w.) plus Sn-PP 10 umol/kg b.w. i.v., pyridine hemochromogen method) | combined amounts of heme plus bilirubin in bile ([3]; heat-damaged erythrocytes plus Sn-PP 10 umol/kg b.w. i.v., average, similar in the control group) | increase in biliary bilirubin output ([3]; heat-damaged erythrocytes plus Sn-PP 10 umol/kg b.w. i.v., in all but one Sn-PP treated animal) | total amount of exogenous heme recovered in the bile as both heme and bilirubin ([1]; heme alone, 6.1 µmol/kg b.w. i.v. bolus, average) | total amount of heme excreted in the bile ([1]; heme alone, 6.1 µmol/kg b.w. i.v. bolus, average of 5 rats)
1 | C=Cc1c2[n-]c(c1C)/C=c1\[n-]/c(c(C)c1C=C)=C\c1[n-]c(c(CCC(=O)O)c1C)C=c1[n-]/c(c(C)c1CCC(=O)O)=C\2.[Sn+4] [Sn-PP, tin protoporphyrin-IX] | prompt and marked increase | 3-4 fold | diminished | 51 % of the dose of heme injected | incresed markedly | prompt and marked increase | about 50 % of the dose of heme administered | greatly diminished |  | 
2 | C=CC1=C(C)c2cc3[n-]c(cc4[n-]c(cc5nc(cc1n2)C(C)=C5C=C)c(C)c4CCC(=O)O)c(CCC(=O)O)c3C.[Fe+2] [heme, ferroprotoporphyrin IX] |  |  |  |  |  |  |  |  | 32 % of the dose administered | 14 % of the dose injected
